Measurements: patent publication US20220007644A1, “COMPOSITIONS COMPRISING PYRIDINE CARBOXYLATE HERBICIDES WITH PHOTOSYSTEM II AND OPTIONAL HPPD INHIBITOR HERBICIDES” (Corteva Agriscience LLC, priority 2018, published 2022)
Where “and” joins values, the source holds several entries; their conditions need not be identical. Identical values can stand only once.

How the values were obtained:
Assay in all cases: Greenhouse postemergence herbicidal effect (visual injury, 20-22 d)
Assay type in all cases: in vivo
[1] = test system: IPOHE, Ipomoea hederacea (ivyleaf morningglory)
[2] = test system: AVEFA, Avena fatua (wild oat)
Summary of the method: (§1)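 Plants at 2nd–3rd true leaf stage were sprayed postemergence with pyridine carboxylate herbicide (g ae/ha; emulsifiable concentrate with cloquintocet-mexyl safener) plus PS-II and optional HPPD herbicide (g ai/ha) in 1.25% v/v crop oil at 187 L/ha. Visual injury versus solvent-blank controls was scored 0–100% after 20-22 d.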

[3] = test system: ECHCG, Echinochloa crus-galli (barnyard grass); details: Compound A 10 g/ha, without cloquintocet-mexyl safener
[4] = test system: KCHSC, Kochia scoparia (kochia)
[5] = test system: SINAR, Sinapis arvensis (wild mustard)
Summary of the method: as §1

[6] = test system: ABUTH, Abutilon theophrasti (velvetleaf); details: for % visual injury, Obs: ABUTH, Compound A 10 g/ha
[7] = test system: LOLMU, Lolium multiflorum (Italian ryegrass); details: Compound A 10 g/ha, without cloquintocet-mexyl safener
[8] = test system: CYPES, Cyperus esculentus (nutsedge); details: Compound A 10 g/ha
[9] = test system: AMARE, Amaranthus retroflexus (pigweed)
Summary of the method: as §1

[10] = test system: MATCH, Matricaria chamomilla (wild chamomile)
Summary of the method: as §1

[11] = without cloquintocet-mexyl safener

N#CCOC(=O)c1nc(-c2ccc3cc[nH]c3c2F)c(F)c(N)c1Cl [Compound A, cyanomethyl 4-amino-3-chloro-5-fluoro-6-(7-fluoro-1H-indol-6-yl)pyridine-2-carboxylate]
visual injury ([1]; 7.5 g ae/ha alone): 20% | visual injury ([1]; 10 g ae/ha alone): 25% | % visual injury, Obs ([1]; IPOHE, Compound A 10 g/ha, without cloquintocet-mexyl safener): 15% | visual injury ([2]; 7.5 g ae/ha alone): 0% | visual injury ([2]; 10 g ae/ha alone): 0% | % visual injury, Obs ([2]; AVEFA, Compound A 10 g/ha, without cloquintocet-mexyl safener): 0% | % visual injury, Obs [3]: 58% | visual injury ([4]; 7.5 g ae/ha alone): 63% and 50% and 65% and 70% | visual injury ([4]; 10 g ae/ha alone): 63% and 58% and 70% | % visual injury, Obs ([4]; KCHSC, Compound A 10 g/ha, without cloquintocet-mexyl safener): 88% | visual injury ([5]; 7.5 g ae/ha alone): 88% and 85% and 83% | visual injury ([5]; 10 g ae/ha alone): 90% and 92% and 88% | visual injury ([6]; 7.5 g ae/ha alone): 68% | visual injury ([6]; 10 g ae/ha alone): 80% | % visual injury, Obs [6]: 80% | % visual injury, Obs [6, 11]: 75% | % visual injury, Obs [7]: 0% | % visual injury, Obs [8]: 8% | % visual injury, Obs [8, 11]: 0% | visual injury ([9]; 7.5 g ae/ha alone): 78% and 70% and 90% | visual injury ([9]; 10 g ae/ha alone): 73% and 90% and 85% | % visual injury, Obs ([9]; AMARE, Compound A 10 g/ha): 88% | visual injury ([10]; 7.5 g ae/ha alone): 20% and 18% and 10% | visual injury ([10]; 10 g ae/ha alone): 30% and 20%
